Data from patent US20070088050A1, “Crystals of laquinimod sodium, and process for the manufacture thereof” (priority 2005, published 2007).

Assays:
[1] = Determination of powder density (bulk density, tapped density); format: physicochemical; conditions: for Powder density, TD (tapped density): 1250 taps; for Powder density, BD (bulk density): loose, uncompacted powder
Experimental: As used herein, “bulk density” or “BD” refers to a density measurement of a loose, uncompacted substance, wherein the volume of the substance includes the air trapped between particles.
As used herein, “tapped density” or “TD” refers to a density measurement of a substance that has been tapped or vibrated, thus minimizing the volume of the substance by eliminating or minimizing the air trapped between particles.
Determination of Powder Density
• 1. Mix powder; • 2. Tare a 50 ml empty cylinder on a 0.01 g sensitivity balance; • 3. Transfer the powder, without compacting, to the cylinder being held at approximately a 45 degree angle to achieve an untapped apparent volume of 40 to 50 ml. • 4. Bring the cylinder containing the sample to a vertical position by a sharp move in order to level the volume for reading. • 5. Read the apparent volume (Va) to the nearest graduated unit; • 6. Weigh the cylinder with sample (the balance gives sample weight M); • 7. Calculate bulk density in g/ml according to the following equation: BD=M/Va; • 8. Perform steps 1-7 again and report the average data of duplicates. Tapped Density • 1. Put the same cylinder used to calculate Bulk Density in a Quantachrome Dual Autotap instrument; • 2. Perform 1250 taps; • 3. Read the tapped volume (Vf) to the nearest graduated unit; • 4. Calculate the tapped density in g/ml according to the following equation: TD=M/Vf; • 5. Perform steps 1-4 again and report the average data of duplicates. Determination of Particle Size

[2] = Particle size distribution by Malvern laser diffraction (Mastersizer S); format: physicochemical; conditions: for Particle size distribution by Malvern, d(0.1): size below which 10% by volume of the population is found; for Particle size distribution by Malvern, d(0.5): size below which 50% by volume of the population is found; for Particle size distribution by Malvern, d(0.9): size below which 90% by volume of the population is found
Experimental: The particle size distributions were measured by Malvern Laser Diffraction, using the Mastersizer S model. Laser diffraction relies on the fact that diffraction angle of light is inversely proportional to particle size. Properties of particles are measured and interpreted as measurements of a sphere (a sphere being the only shape that can be described by one unique number). In addition, laser diffraction calculates a particle size distribution based around volume terms, thus eliminating particle count from the determination of particle size. The Mastersizer S model measures particles using a single technique and a single range setting.
D(0.1) is the particle size, in microns, below which 10% by volume distribution of the population is found. D(0.5) is the particle size, in microns, below which 50% by volume distribution of the population is found. D(0.9) is the particle size, in microns, below which 90% by volume distribution of the population is found.

[3] = Solubility of laquinimod sodium in anti-solvents at room temperature (USP XXV terms); format: physicochemical; conditions: room temperature (20-25° C.)
Excerpt: The solubility terms are defined below, in accordance with the United States Pharmacopoeia XXV. [table]

[4] = Insoluble matter test: sample mixed in deionized water at ambient temperature; format: physicochemical; conditions: 55 mg sample in 0.5 mL deionized water
Experimental: (§1) The subject invention also provides a process for making a pharmaceutical composition comprising laquinimod sodium comprising: • a) obtaining a batch of laquinimod sodium; • b) determining whether insoluble matter is present in the batch of step a) by mixing a sample from the batch in deionized water at room temperature at a ratio of at least 110 mg of sample to 1.0 ml of water, and inspecting the resulting mixture for the presence of insoluble matter; and • c) mixing the batch of step a) with at least one pharmaceutically acceptable carrier if in step b) insoluble matter is determined to be present below a predetermined amount.
as §1, with “A” for “The subject invention also provides a”, “amount. […]” for “amount.”

[5] = system: acute experimental autoimmune encephalomyelitis (aEAE) model; conditions: U.S. Pat. No. 6,077,851; cited from earlier work
[6] = listed as Laguinimod Sodium according to Example 1 (batch B)

Row | Structure (SMILES) | Powder density, TD (tapped density) [1] [g/ml] | Powder density, BD (bulk density) [1] [g/ml] | Particle size distribution by Malvern, d(0.1) [2] [micron] | Particle size distribution by Malvern, d(0.5) [2] [micron] | Particle size distribution by Malvern, d(0.9) [2] [micron] | other results
1 | CCN(C(=O)c1c([O-])c2c(Cl)cccc2n(C)c1=O)c1ccccc1.[Na+] [Re-acrystallized product] | 0.758 | 0.498 | 13.3 | 51.1 | 105.1 | 
2 | CCN(C(=O)c1c([O-])c2c(Cl)cccc2n(C)c1=O)c1ccccc1.[Na+] [Laquinimod Sodium prepared according to Example 1 (batch B)] | 0.452 | 0.189 | 2.1 | 10.8 | 35.3 | Particle size distribution by Malvern, d(0.1) [2, 6]: 2.1 micron; Particle size distribution by Malvern, d(0.5) [2, 6]: 10.8 micron; Particle size distribution by Malvern, d(0.9) [2, 6]: 35.3 micron
3 | CCN(C(=O)c1c([O-])c2c(Cl)cccc2n(C)c1=O)c1ccccc1.[Na+] [Recrystallized product (Example 16)] |  |  | 15.7 | 65.5 | 156.4 | 
4 | CCN(C(=O)c1c([O-])c2c(Cl)cccc2n(C)c1=O)c1ccccc1.[Na+] [Recrystallized product (Example 15)] |  |  | 6.1 | 21.2 | 51.8 | 
5 | CCN(C(=O)c1c([O-])c2c(Cl)cccc2n(C)c1=O)c1ccccc1.[Na+] [Laquinimod Sodium prepared according to Example 1 (batch A)] | 0.347 | 0.166 | 1.5 | 7.1 | 23.2 | 
6 | CCN(C(=O)c1c([O-])c2c(Cl)cccc2n(C)c1=O)c1ccccc1.[Na+] [Laquinimod Sodium prepared according to Example 1 (batch C)] | 0.362 | 0.158 | 1.3 | 5.9 | 19.4 | 
7 | CCN(C(=O)c1c(O)c2c(Cl)cccc2n(C)c1=O)c1ccccc1 [laquinimod sodium] |  |  |  |  |  | Solubility in acetone ([3]; acetone): practically insoluble; Solubility in ethanol ([3]; ethanol): slightly soluble; Solubility in isopropanol ([3]; isopropanol): very slightly soluble
8 | CCN(C(=O)c1c([O-])c2c(Cl)cccc2n(C)c1=O)c1ccccc1.[Na+] [Recrystallized product (Example 14)] | 0.429 | 0.224 | 3.5 | 15.7 | 43.2 | 
9 | CCN(C(=O)c1c([O-])c2c(Cl)cccc2n(C)c1=O)c1ccccc1.[Na+] |  |  |  |  |  | Dissolution in deionized water [4]: did not completely dissolve
10 | CCN(C(=O)c1c(O)c2c(Cl)cccc2n(C)c1=O)c1ccccc1 [Laquinimod, N-ethyl-N-phenyl-1,2,-dihydro-4-hydroxy-5-chloro-1-methyl-2-oxoquinoline-3-carboxamide] |  |  |  |  |  | Efficacy in the aEAE model [5]: effective
